Patent publication US20230242585A1, “IMMUNOMODULATORS” (Bristol-Myers Squibb Company, priority 2020, published 2023)
Starred links: 1 amine or outer side, 2 acyl side, 3 side chain; linkers in the order of their positions; H or OH if unused. Positions of bridges follow the written chain, without caps; N, C: chain ends. Non-standard residues stand in square brackets, D forms with d. Residues, ends and D or L forms follow the SMILES beside them. X34 = O=C([C@H](CCNC[C@H](O)[C@@H](O)[C@@H](O)CO)N[*:1])[*:2]; X33 = O=C([C@H](CNC[C@H](O)[C@@H](O)[C@@H](O)CO)N[*:1])[*:2]; X26 = O=C([C@H](CCNC[C@H](O)[C@H](O)[C@H](O)CO)N[*:1])[*:2]; X7 = O=C([C@H](CNC[C@H](O)[C@H](O)[C@H](O)CO)N[*:1])[*:2]; Trp(1-CH2COOH) = N[C@@H](Cc1cn(CC(=O)O)c2ccccc12)C(=O)O; X21 = O=C([C@H](CCNCc1c2ccccc2nc2ccccc12)N[*:1])[*:2]; X55 = O=C([C@H](CCNCc1cccc2ccc3ccccc3c12)N[*:1])[*:2]; X10 = O=C([C@H](CNCc1c2ccccc2nc2ccccc12)N[*:1])[*:2]; X12 = O=C([C@H](CNCc1cccc2ccc3ccccc3c12)N[*:1])[*:2]; X36 = COc1cc2cccc(OC)c2cc1CNC[C@H](N[*:1])C(=O)[*:2]; X13 = O=C([C@H](CNCc1cccc2[nH]ccc12)N[*:1])[*:2]; X16 = O=C([C@H](CCNCC(O)C(O)C(O)CO)N[*:1])[*:2]; X15 = O=C([C@H](CNCC(O)C(O)C(O)CO)N[*:1])[*:2]; X17 = O=C([C@H](CNCc1cncc2ccccc12)N[*:1])[*:2]; X20 = O=C([C@H](CNCc1nccc2ccccc12)N[*:1])[*:2]; X61 = O=C([C@H](CCNCc1ccccc1O)N[*:1])[*:2]; X60 = O=C([C@H](CNCc1ccccc1O)N[*:1])[*:2]; Hyp = O=C(O)[C@@H]1C[C@@H](O)CN1; NMeNle = CCCC[C@H](NC)C(=O)O; NMeA = CN[C@@H](C)C(=O)O; Dab = NCC[C@H](N)C(=O)O

Molecular target: T1, PD-1/PD-L1 (Homo sapiens, UniProt Q9NZQ7)
T1 construct: TVMV protease site (linker) (C); made in house; host or cells: HEK293T cells
Assay: PD-1/PD-L1 Homogenous Time-Resolved Fluorescence (HTRF) binding assay
Details: PD-L1-His 10 nM, PD-1-Ig 20 nM
Description: The ability of the compounds of formula (I) to bind to PD-L1 was investigated using a PD-1/PD-L1 Homogenous Time-Resolved Fluorescence (HTRF) binding assay.
The interaction of PD-1 and PD-L1 can be assessed using soluble, purified preparations of the extracellular domains of the two proteins. The PD-1 and PD-L1 protein extracellular domains were expressed as fusion proteins with detection tags, for PD-1, the tag was the Fc portion of Immunoglobulin (PD-1-Ig) and for PD-L1 it was the 6 histidine motif (PD-L1-His). All binding studies were performed in an HTRF assay buffer consisting of dPBS supplemented with 0.1% […] bovine serum albumin and 0.05% (v/v) Tween-20. For the h/PD-L1-His binding assay, inhibitors were pre-incubated with PD-L1-His (10 nM final) for 15 m in 4 µl of assay buffer, followed by addition of PD-1-Ig (20 nM final) in 1 µl of assay buffer and further incubation for 15 m. HTRF detection was achieved using europium crypate-labeled anti-Ig (1 nM final) and allophycocyanin (APC) labeled anti-His (20 nM final). Antibodies were diluted in HTRF detection buffer and 5 µl was dispensed on top of the binding reaction. The reaction mixture was allowed to equilibrate for 30 minutes and the resulting signal (665 nm/620 nm ratio) was obtained using an EnVision fluorometer. Additional binding assays were established between the human proteins PD-1-Ig/PD-L2-His (20 & 5 nM, respectively) and CD80-His/PD-L1-Ig (100 & 10 nM, respectively).
Recombinant Proteins: Human PD-1 (25-167) with a C-terminal human Fc domain of immunoglobulin G (Ig) epitope tag [hPD-1 (25-167)-3S-IG] and human PD-L1 (18-239) with a C-terminal His epitope tag [hPD-L1(18-239)-TVMV-His] were expressed in HEK293T cells and purified sequentially by ProteinA affinity chromatography and size exclusion chromatography. Human PD-L2-His and CD80-His was obtained through commercial sources.
Table 1 lists the IC50 values for representative examples of this disclosure measured in the PD-1/PD-L1 Homogenous Time-Resolved Fluorescence (HTRF) binding assay.

T1 sequence (Q9NZQ7 18-239): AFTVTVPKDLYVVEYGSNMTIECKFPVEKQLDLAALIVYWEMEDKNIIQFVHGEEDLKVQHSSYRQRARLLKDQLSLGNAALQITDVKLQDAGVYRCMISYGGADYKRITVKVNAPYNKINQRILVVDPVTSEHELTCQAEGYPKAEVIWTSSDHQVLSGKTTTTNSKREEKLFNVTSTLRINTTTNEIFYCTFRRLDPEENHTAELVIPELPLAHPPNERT

SMILES | IC50 [nM]
CCCC[C@H]1C(=O)N(C)[C@@H](CCCC)C(=O)N[C@@H](CC(C)C)C(=O)N[C@H](C(=O)NCC(N)=O)CSCC(=O)N[C@@H](Cc2ccc(O)cc2)C(=O)N(C)[C@@H](C)C(=O)N[C@@H](CC(N)=O)C(=O)N2CCC[C@H]2C(=O)N[C@@H](CNCc2cccc3[nH]ccc23)C(=O)N[C@@H](CC(C)C)C(=O)N2C[C@H](O)C[C@H]2C(=O)N[C@@H](Cc2c[nH]c3ccccc23)C(=O)N[C@@H](CCN)C(=O)N[C@@H](Cc2cn(CC(=O)O)c3ccccc23)C(=O)N1C [Example 1015] ({CH2CO}-Y[NMeA]NP[X13]L[Hyp]W[Dab][Trp(1-CH2COOH)][NMeNle][NMeNle]LCG-NH2; thioether N-14) | 5.1
CCCC[C@H]1C(=O)N(C)[C@@H](CCCC)C(=O)N[C@@H](CC(C)C)C(=O)N[C@H](C(=O)NCC(N)=O)CSCC(=O)N[C@@H](Cc2ccc(O)cc2)C(=O)N(C)[C@@H](C)C(=O)N[C@@H](CC(N)=O)C(=O)N2CCC[C@H]2C(=O)N[C@@H](CNCc2cc3c(OC)cccc3cc2OC)C(=O)N[C@@H](CC(C)C)C(=O)N2C[C@H](O)C[C@H]2C(=O)N[C@@H](Cc2c[nH]c3ccccc23)C(=O)N[C@@H](CCN)C(=O)N[C@@H](Cc2cn(CC(=O)O)c3ccccc23)C(=O)N1C [Example 1016] ({CH2CO}-Y[NMeA]NP[X36]L[Hyp]W[Dab][Trp(1-CH2COOH)][NMeNle][NMeNle]LCG-NH2; thioether N-14) | 6.4
CCCC[C@H]1C(=O)N(C)[C@@H](CCCC)C(=O)N[C@@H](CC(C)C)C(=O)N[C@H](C(=O)NCC(N)=O)CSCC(=O)N[C@@H](Cc2ccc(O)cc2)C(=O)N(C)[C@@H](C)C(=O)N[C@@H](CC(N)=O)C(=O)N2CCC[C@H]2C(=O)N[C@@H](CNCc2nccc3ccccc23)C(=O)N[C@@H](CC(C)C)C(=O)N2C[C@H](O)C[C@H]2C(=O)N[C@@H](Cc2c[nH]c3ccccc23)C(=O)N[C@@H](CCN)C(=O)N[C@@H](Cc2cn(CC(=O)O)c3ccccc23)C(=O)N1C [Example 1018] ({CH2CO}-Y[NMeA]NP[X20]L[Hyp]W[Dab][Trp(1-CH2COOH)][NMeNle][NMeNle]LCG-NH2; thioether N-14) | 8.4
CCCC[C@H]1C(=O)N(C)[C@@H](CCCC)C(=O)N[C@@H](CC(C)C)C(=O)N[C@H](C(=O)NCC(N)=O)CSCC(=O)N[C@@H](Cc2ccc(O)cc2)C(=O)N(C)[C@@H](C)C(=O)N[C@@H](CC(N)=O)C(=O)N2CCC[C@H]2C(=O)N[C@@H](CNCc2cncc3ccccc23)C(=O)N[C@@H](CC(C)C)C(=O)N2C[C@H](O)C[C@H]2C(=O)N[C@@H](Cc2c[nH]c3ccccc23)C(=O)N[C@@H](CCN)C(=O)N[C@@H](Cc2cn(CC(=O)O)c3ccccc23)C(=O)N1C [Example 1019] ({CH2CO}-Y[NMeA]NP[X17]L[Hyp]W[Dab][Trp(1-CH2COOH)][NMeNle][NMeNle]LCG-NH2; thioether N-14) | 7.9
CCCC[C@H]1C(=O)N(C)[C@@H](CCCC)C(=O)N[C@@H](CC(C)C)C(=O)N[C@H](C(=O)NCC(N)=O)CSCC(=O)N[C@@H](Cc2ccc(O)cc2)C(=O)N(C)[C@@H](C)C(=O)N[C@@H](CC(N)=O)C(=O)N2CCC[C@H]2C(=O)N[C@@H](CNCc2c3ccccc3nc3ccccc23)C(=O)N[C@@H](CC(C)C)C(=O)N2C[C@H](O)C[C@H]2C(=O)N[C@@H](Cc2c[nH]c3ccccc23)C(=O)N[C@@H](CCNCc2c3ccccc3nc3ccccc23)C(=O)N[C@@H](Cc2cn(CC(=O)O)c3ccccc23)C(=O)N1C [Example 1020] ({CH2CO}-Y[NMeA]NP[X10]L[Hyp]W[X21][Trp(1-CH2COOH)][NMeNle][NMeNle]LCG-NH2; thioether N-14) | 9.9
CCCC[C@H]1C(=O)N(C)[C@@H](CCCC)C(=O)N[C@@H](CC(C)C)C(=O)N[C@H](C(=O)NCC(N)=O)CSCC(=O)N[C@@H](Cc2ccc(O)cc2)C(=O)N(C)[C@@H](C)C(=O)N[C@@H](CC(N)=O)C(=O)N2CCC[C@H]2C(=O)N[C@@H](CNCc2ccccc2O)C(=O)N[C@@H](CC(C)C)C(=O)N2C[C@H](O)C[C@H]2C(=O)N[C@@H](Cc2c[nH]c3ccccc23)C(=O)N[C@@H](CCNCc2ccccc2O)C(=O)N[C@@H](Cc2cn(CC(=O)O)c3ccccc23)C(=O)N1C [Example 1021] ({CH2CO}-Y[NMeA]NP[X60]L[Hyp]W[X61][Trp(1-CH2COOH)][NMeNle][NMeNle]LCG-NH2; thioether N-14) | 7.6
CCCC[C@H]1C(=O)N(C)[C@@H](CCCC)C(=O)N[C@@H](CC(C)C)C(=O)N[C@H](C(=O)NCC(N)=O)CSCC(=O)N[C@@H](Cc2ccc(O)cc2)C(=O)N(C)[C@@H](C)C(=O)N[C@@H](CC(N)=O)C(=O)N2CCC[C@H]2C(=O)N[C@@H](CNCc2cccc3ccc4ccccc4c23)C(=O)N[C@@H](CC(C)C)C(=O)N2C[C@H](O)C[C@H]2C(=O)N[C@@H](Cc2c[nH]c3ccccc23)C(=O)N[C@@H](CCNCc2cccc3ccc4ccccc4c23)C(=O)N[C@@H](Cc2cn(CC(=O)O)c3ccccc23)C(=O)N1C [Example 1022] ({CH2CO}-Y[NMeA]NP[X12]L[Hyp]W[X55][Trp(1-CH2COOH)][NMeNle][NMeNle]LCG-NH2; thioether N-14) | 1400
CCCC[C@H]1C(=O)N(C)[C@@H](CCCC)C(=O)N[C@@H](CC(C)C)C(=O)N[C@H](C(=O)NCC(N)=O)CSCC(=O)N[C@@H](Cc2ccc(O)cc2)C(=O)N(C)[C@@H](C)C(=O)N[C@@H](CC(N)=O)C(=O)N2CCC[C@H]2C(=O)N[C@@H](CNCC(O)C(O)C(O)CO)C(=O)N[C@@H](CC(C)C)C(=O)N2C[C@H](O)C[C@H]2C(=O)N[C@@H](Cc2c[nH]c3ccccc23)C(=O)N[C@@H](CCNCC(O)C(O)C(O)CO)C(=O)N[C@@H](Cc2cn(CC(=O)O)c3ccccc23)C(=O)N1C (stereo partly drawn) [Example 2001] ({CH2CO}-Y[NMeA]NP[X15]L[Hyp]W[X16][Trp(1-CH2COOH)][NMeNle][NMeNle]LCG-NH2; thioether N-14) | 7.8
CCCC[C@H]1C(=O)N(C)[C@@H](CCCC)C(=O)N[C@@H](CC(C)C)C(=O)N[C@H](C(=O)NCC(N)=O)CSCC(=O)N[C@@H](Cc2ccc(O)cc2)C(=O)N(C)[C@@H](C)C(=O)N[C@@H](CC(N)=O)C(=O)N2CCC[C@H]2C(=O)N[C@@H](CNC[C@H](O)[C@@H](O)[C@@H](O)CO)C(=O)N[C@@H](CC(C)C)C(=O)N2C[C@H](O)C[C@H]2C(=O)N[C@@H](Cc2c[nH]c3ccccc23)C(=O)N[C@@H](CCN)C(=O)N[C@@H](Cc2cn(CC(=O)O)c3ccccc23)C(=O)N1C [Example 2002] ({CH2CO}-Y[NMeA]NP[X33]L[Hyp]W[Dab][Trp(1-CH2COOH)][NMeNle][NMeNle]LCG-NH2; thioether N-14) | 5
CCCC[C@H]1C(=O)N(C)[C@@H](CCCC)C(=O)N[C@@H](CC(C)C)C(=O)N[C@H](C(=O)NCC(N)=O)CSCC(=O)N[C@@H](Cc2ccc(O)cc2)C(=O)N(C)[C@@H](C)C(=O)N[C@@H](CC(N)=O)C(=O)N2CCC[C@H]2C(=O)N[C@@H](CNC[C@H](O)[C@H](O)[C@H](O)CO)C(=O)N[C@@H](CC(C)C)C(=O)N2C[C@H](O)C[C@H]2C(=O)N[C@@H](Cc2c[nH]c3ccccc23)C(=O)N[C@@H](CCNC[C@H](O)[C@H](O)[C@H](O)CO)C(=O)N[C@@H](Cc2cn(CC(=O)O)c3ccccc23)C(=O)N1C [Example 2003] ({CH2CO}-Y[NMeA]NP[X7]L[Hyp]W[X26][Trp(1-CH2COOH)][NMeNle][NMeNle]LCG-NH2; thioether N-14) | 9.9
CCCC[C@H]1C(=O)N(C)[C@@H](CCCC)C(=O)N[C@@H](CC(C)C)C(=O)N[C@H](C(=O)NCC(N)=O)CSCC(=O)N[C@@H](Cc2ccc(O)cc2)C(=O)N(C)[C@@H](C)C(=O)N[C@@H](CC(N)=O)C(=O)N2CCC[C@H]2C(=O)N[C@@H](CNC[C@H](O)[C@@H](O)[C@@H](O)CO)C(=O)N[C@@H](CC(C)C)C(=O)N2C[C@H](O)C[C@H]2C(=O)N[C@@H](Cc2c[nH]c3ccccc23)C(=O)N[C@@H](CCNC[C@H](O)[C@@H](O)[C@@H](O)CO)C(=O)N[C@@H](Cc2cn(CC(=O)O)c3ccccc23)C(=O)N1C [Example 2004] ({CH2CO}-Y[NMeA]NP[X33]L[Hyp]W[X34][Trp(1-CH2COOH)][NMeNle][NMeNle]LCG-NH2; thioether N-14) | 6.7
CCCC[C@H]1C(=O)N(C)[C@@H](CCCC)C(=O)N[C@@H](CC(C)C)C(=O)N[C@H](C(=O)NCC(N)=O)CSCC(=O)N[C@@H](Cc2ccc(O)cc2)C(=O)N(C)[C@@H](C)C(=O)N[C@@H](CC(N)=O)C(=O)N2CCC[C@H]2C(=O)N[C@@H](CNC[C@H](O)[C@H](O)[C@H](O)CO)C(=O)N[C@@H](CC(C)C)C(=O)N2C[C@H](O)C[C@H]2C(=O)N[C@@H](Cc2c[nH]c3ccccc23)C(=O)N[C@@H](CCN)C(=O)N[C@@H](Cc2cn(CC(=O)O)c3ccccc23)C(=O)N1C [Example 2006] ({CH2CO}-Y[NMeA]NP[X7]L[Hyp]W[Dab][Trp(1-CH2COOH)][NMeNle][NMeNle]LCG-NH2; thioether N-14) | 12
